# USRE37781E1, “Substituted cyclic carbonyls and derivatives thereof useful as retroviral protease inhibitors” (DuPont Pharmaceuticals Company, priority 1991, dated 2002)
# Key:
# [1] = tested on: HIV-1 (RF) in MT-2 cells; test: microbe, parasite or virus in culture; assay type: cell-based; settings: Human immunodeficiency virus 1, MT2, HIV RNA assay, HIV-1 infected MT-2 cells; class symbols; read-out: IC90
# How it was run: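 Read-out: gag and pol viral RNA captured by 5′-biotinylated oligonucleotides on streptavidin-coated wells, detected with alkaline phosphatase-linked reporter oligonucleotides, calibrated against BH10 in vitro transcripts. Virus stocks (RF, MN, IIIB) come from H9 cultures; MT-2 host cells kept in RPMI 1640, 5% FCS.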
# [2] = biological target: single-chain tethered dimer of HIV protease (Human immunodeficiency virus 1, UniProt P04585); test: biochemical; assay type: biochemical
# Procedure: HIV Protease Inhibition Assay—HPLC Method
# Active protease was prepared as described therein by extraction with 67% acetic acid, dilution 33-fold with water, dialysis against water and then against a “refolding buffer” consisting of 20 mM MES, 1 mM dithiothreitol and 10% glycerol. Protease was stored as a stock preparation at 10 uM in refolding buffer.
# Substrate: Peptide of sequence: aminobenzoyl-Ala-Thr-His-Gln-Val-Tyr-Phe(NO2)-Val-Arg-Lys-Ala containing p-nitrophenylalanine, was prepared by solid phase synthesis as previously described Cheng et al., op.cit. Stock solutions of 2 mM substrate were prepared in DMSO.
# Inhibitory compounds were dissolved in sufficient DMSO to make 3 mM stock solutions. All further dilutions were prepared in “assay buffer”: 1M NaCl, 50 mM MES, pH 5.5, 1 mM EDTA, 1 mM DTT, […] glycerol.
# Enzyme reaction: In a 2 ml screw-cap centrifuge tube were added 50 ul protease (final concentration 0.25 nM) and 0.1 ml inhibitory compound (final concentration […]). After 15 min preincubation at room temperature, the reaction was started with the addition of 0.05 ml substrate (final concentration 5 uM). Incubation was carried out at 30 C. for 1 hr. The reaction was stopped with 1 ml 0.1M ammonium hydroxide.
# HPLC measurement of product formation: The product (aminobenzoyl-Ala-Thr-His-Gln-Val-Tyr) was separated from substrate on a Pharmacia MonoQ anion exchange column. The injection volume was 0.2 ml. The mobile phases were: A (20 mM trisHCl, pH 9.0, 0.02% sodium Azide, 10% acetonitrile), B (20 mM tris HCl, pH 9.0, 0.02% sodium azide, 0.5M ammonium formate, 10% acetonitrile). The mobile phases were pumped at 1 ml/min, with a gradient from 0 to 30% B in 5 min, 100% B for 4 min to wash the column, and a re-equilibration for 4 min. The retention time of the product was 3.6 min. Detection with a Shimadzu model RF535 fluorescence monitor was at 330 nm (excitation) and 430 (emission).
Compound,melting point [°C],IC90 [1] [µg/mL],Ki [2] [nM]
COCCN1C(=O)N(CCOC)C(Cc2ccccc2)C(O)C(O)C1Cc1ccccc1 (stereo not drawn) [Example 3N],183 to 185,> 100,10 to 1000
CC(C)(C)CCN1C(=O)N(CCC(C)(C)C)C(Cc2ccccc2)C(O)C(O)C1Cc1ccccc1 (stereo not drawn) [Example 3P],242 to 245,> 100,10 to 1000
CCOCCN1C(=O)N(CCOCC)C(Cc2ccccc2)C(O)C(O)C1Cc1ccccc1 (stereo not drawn) [Example 3R],148 to 150,> 100,> 1000
CCCCN1C(=O)N(Cc2ccccc2)C(Cc2ccccc2)C(O)C(O)C1Cc1ccccc1 (stereo not drawn) [Example 3V],89 to 91,< 10,< 10
CC(C)=CCN1C(=O)N(Cc2ccccc2)C(Cc2ccccc2)C(O)C(O)C1Cc1ccccc1 (stereo not drawn) [Example 3Y],173 to 174,< 10,< 10
CCN1C(=O)N(Cc2ccccc2)C(Cc2ccccc2)C(O)C(O)C1Cc1ccccc1 (stereo not drawn) [Example 4A],190 to 193,< 10,< 10
O=C1N(Cc2c(F)c(F)c(F)c(F)c2F)C(Cc2ccccc2)C(O)C(O)C(Cc2ccccc2)N1Cc1c(F)c(F)c(F)c(F)c1F (stereo not drawn) [Example 4J],193 to 195,< 10,> 1000
O=C1N(Cc2ccc3ccccc3c2)C(Cc2ccccc2)C(O)C(O)C(Cc2ccccc2)N1CC1CC1 (stereo not drawn) [Example 4K],175 to 178,< 10,< 10
O=C1N(Cc2ccc3ccccc3c2)C(Cc2ccccc2)C(O)C(O)C(Cc2ccccc2)N1CC1CCCC1 (stereo not drawn) [Example 4L],89 to 92,< 10,< 10
O=C1N(Cc2ccccc2)C(Cc2ccccc2)C(O)C(O)C(Cc2ccccc2)N1Cc1ccc2ccccc2c1 (stereo not drawn) [Example 4M],90 to 92,< 10,< 10
N#Cc1cccc(CN2C(=O)N(Cc3cccc(C#N)c3)C(Cc3ccccc3)C(O)C(O)C2Cc2ccccc2)c1 (stereo not drawn) [Example 4P],225 to 227,< 10,< 10
O=C1N(Cc2ccc(-c3ccccc3)cc2)C(Cc2ccccc2)C(O)C(O)C(Cc2ccccc2)N1Cc1ccc(-c2ccccc2)cc1 (stereo not drawn) [Example 4R],109 to 110,,10 to 1000
C=CCN1C(=O)N(Cc2ccc3ccccc3c2)C(Cc2ccccc2)C(O)C(O)C1Cc1ccccc1 (stereo not drawn) [Example 4S],72 to 74,< 10,< 10
CCCCN1C(=O)N(Cc2ccc3ccccc3c2)C(Cc2ccccc2)C(O)C(O)C1Cc1ccccc1 (stereo not drawn) [Example 4U],78 to 80,< 10,< 10
O=C1NC(Cc2ccccc2)C(O)C(O)C(Cc2ccccc2)N1Cc1ccc2ccccc2c1 (stereo not drawn) [Example 4V],210 to 213,< 10,< 10
O=C1N(Cc2ccc3ccccc3c2)C(Cc2ccccc2)C(O)C(O)C(Cc2ccccc2)N1Cc1ccccn1 (stereo not drawn) [Example 4Y],165 to 166,< 10,10 to 1000
O=C1N(Cc2ccncc2)C(Cc2ccccc2)C(O)C(O)C(Cc2ccccc2)N1Cc1ccc2ccccc2c1 (stereo not drawn) [Example 4Z],118 to 121,< 10,< 10
C=CCN1C(=O)NC(Cc2ccccc2)C(O)C(O)C1Cc1ccccc1 (stereo not drawn) [Example 5A],180 to 182,,> 1000
C=CCN1C(=O)N(Cc2ccccn2)C(Cc2ccccc2)C(O)C(O)C1Cc1ccccc1 (stereo not drawn) [Example 5C],160 to 162,< 10,10 to 1000
O=C1N(Cc2cccc(OCc3ccccc3)c2)C(Cc2ccccc2)C(O)C(O)C(Cc2ccccc2)N1Cc1cccc(OCc2ccccc2)c1 (stereo not drawn) [Example 5F],165 to 166,,10 to 1000
